pKd: −log10 of the molar value. Peptide text beside a SMILES is read from it.
Columns and labels:
[1] = system: 8H5 binding to H5N1 virus Chicken/HongKong/YU22/2002; set-up: species or system H5N1 avian influenza virus
[2] = system: 8H5 binding to H5N1 virus Shenzhen/406H/2006; set-up: species or system H5N1 avian influenza virus
[3] = system: chicken serum antibody against H5N1 avian influenza virus; format: binding
[4] = biological target: 8H5 mAb; format: binding, murine; settings: read-out: Kd (dissociation constant for 8H5)
[5] = system: 8H5 mAb; format: binding, murine

CC[C@H](C)[C@H](NC(=O)[C@@H](NC(=O)[C@H](CC(C)C)NC(=O)[C@H](CCC(=O)O)NC(=O)[C@@H](NC(=O)[C@@H](N)CCC(=O)O)[C@@H](C)O)[C@@H](C)O)C(=O)N[C@@H](C)C(=O)N[C@@H](C)C(=O)N[C@@H](CC(C)C)C(=O)N[C@@H](CCCCN)C(=O)N[C@@H](Cc1ccc(O)cc1)C(=O)N[C@H](C(=O)O)C(C)C [IV-1b] (H-ETELTIAALKYV-OH; N-terminus and C-terminus assumed)
Blocking Dose Yu22: amount of peptide that blocks binding of 8H5 to the virus by 50% [1]: >50 µg | Blocking Dose SZ/406H: amount of peptide that blocks binding of 8H5 to the virus by 50% [2]: >50 µg

CC[C@H](C)[C@H](NC(=O)[C@@H](NC(=O)[C@H](CC(C)C)NC(=O)[C@@H]1CCCN1C(=O)[C@@H](NC(=O)[C@@H](N)CC(=O)O)[C@@H](C)O)[C@@H](C)O)C(=O)N[C@@H](C)C(=O)NCC(=O)N[C@@H](CC(C)C)C(=O)N[C@@H](CCCCN)C(=O)N[C@@H](CC(C)C)C(=O)N[C@H](C(=O)O)C(C)C [II-1c] (H-DTPLTIAGLKLV-OH; N-terminus and C-terminus assumed)
Blocking Dose Yu22: amount of peptide that blocks binding of 8H5 to the virus by 50% [1]: 8.90 µg | Blocking Dose SZ/406H: amount of peptide that blocks binding of 8H5 to the virus by 50% [2]: 2.38 µg

CC[C@H](C)[C@H](NC(=O)[C@@H](NC(=O)[C@H](CC(C)C)NC(=O)[C@@H]1CCCN1C(=O)[C@@H](NC(=O)[C@@H](N)CCC(=O)O)[C@@H](C)O)[C@@H](C)O)C(=O)N[C@@H](C)C(=O)NCC(=O)N[C@@H](CC(C)C)C(=O)N[C@@H](CCCCN)C(=O)N[C@@H](CC(C)C)C(=O)N[C@@H](CCCCN)C(=O)O [V-1b] (H-ETPLTIAGLKLK-OH; N-terminus and C-terminus assumed)
reactivity of the ELISA produced with V-1b fused to HBcAg with chicken serum samples [3]: only the H5N1 avian influenza reactive samples were also 8H5 reactive | Blocking Dose Yu22: amount of peptide that blocks binding of 8H5 to the virus by 50% [1]: 5.70 µg | Blocking Dose SZ/406H: amount of peptide that blocks binding of 8H5 to the virus by 50% [2]: 2.31 µg

CC(C)C[C@H](NC(=O)[C@H](C)NC(=O)[C@H](C)NC(=O)[C@@H](NC(=O)[C@@H](NC(=O)[C@H](CC(C)C)NC(=O)[C@@H]1CCCN1C(=O)[C@@H](NC(=O)[C@@H](N)CC(=O)O)[C@@H](C)O)[C@@H](C)O)[C@@H](C)O)C(=O)N[C@@H](CCCNC(=N)N)C(=O)N[C@@H](CC(C)C)C(=O)N[C@H](C(=O)O)C(C)C [p125] (H-DTPLTTAALRLV-OH; N-terminus and C-terminus assumed)
pKd [4]: 6.08 | 8H5 titer (Tod1.5): phage dilution yielding an OD value of 1.5 [5]: 2.96 | Blocking Dose Yu22: amount of peptide that blocks binding of 8H5 to the virus by 50% [1]: 18.34 µg | Blocking Dose SZ/406H: amount of peptide that blocks binding of 8H5 to the virus by 50% [2]: 11.16 µg

CC(C)C[C@H](NC(=O)[C@H](C)NC(=O)[C@H](CCC(N)=O)NC(=O)[C@H](CCCCN)NC(=O)[C@@H](NC(=O)[C@H](CC(C)C)NC(=O)[C@H](CCC(=O)O)NC(=O)[C@@H](NC(=O)[C@@H](N)CC(=O)O)[C@@H](C)O)[C@@H](C)O)C(=O)N[C@@H](CCCNC(=N)N)C(=O)N[C@@H](CC(C)C)C(=O)N[C@H](C(=O)O)C(C)C [III-2a] (H-DTELTKQALRLV-OH; N-terminus and C-terminus assumed)
Blocking Dose Yu22: amount of peptide that blocks binding of 8H5 to the virus by 50% [1]: 15.19 µg | Blocking Dose SZ/406H: amount of peptide that blocks binding of 8H5 to the virus by 50% [2]: 6.10 µg

Reference: article PMC3166295 (PLoS ONE, 2011)
